Test results published in US9969723B2, “3-(4-(benzyloxy)phenyl)hex-4-ynoic acid derivative, method of preparing same and pharmaceutical composition for preventing and treating metabolic disease including same as effective ingredient” (HYUNDAI PHARM CO., LTD, priority 2014, dated 2018).

molecular target: GPR40 (Homo sapiens (Human), UniProt O14842); test: GPR40 protein activity by intracellular calcium concentration (Fluo-4, Flexstation 3) in transfected HEK-293 cells; type: cell-based; details: HEK-293 cells transfected with human GPR40, intracellular calcium; read-out: EC50
Method: The GPR40 protein activity according to the novel 3-(4-(benzyloxy)phenyl)hex-4-inoic acid derivative of the present invention was measured by investigating the changes in intracellular calcium concentration affected by the GRP40 activation. First, HEK-293 cells were transfected with human GPR40 DNA (Origene, RC218370) by using Fugene HD (Promega, E2311). […] 24 hours later, the cell culture medium was replaced with Dulbecco's Modified Eagle Medium (DMEM, 50 μl/well) supplemented with 1% fetal bovine serum (FBS). To measure the calcium concentration, 50 μl of Fluo-4 reagent (Invitrogen, F10471) was added to each well, followed by culture in a 37° C. incubator for 2 hours. […] 2 hours after the culture began, those prepared samples were automatically injected to the cells by using Flexstation 3 (Molecular Devices). Then, intracellular calcium concentration was measured for 120 seconds by using SoftMax® Pro software. At this time, dimethylsulfoxide (DMSO) was injected to the cells for the non-treated group, followed by measuring the calcium concentration therein. The GPR40 protein activity was calculated by the below mathematical formula 1 with the results of calcium concentration measurement. GPR40 activity=(intracellular calcium concentration increased by the sample)/(intracellular calcium concentration of the non-treated group)×100 [Mathematical Formula 1]

Sequence of GPR40 (O14842 whole entry): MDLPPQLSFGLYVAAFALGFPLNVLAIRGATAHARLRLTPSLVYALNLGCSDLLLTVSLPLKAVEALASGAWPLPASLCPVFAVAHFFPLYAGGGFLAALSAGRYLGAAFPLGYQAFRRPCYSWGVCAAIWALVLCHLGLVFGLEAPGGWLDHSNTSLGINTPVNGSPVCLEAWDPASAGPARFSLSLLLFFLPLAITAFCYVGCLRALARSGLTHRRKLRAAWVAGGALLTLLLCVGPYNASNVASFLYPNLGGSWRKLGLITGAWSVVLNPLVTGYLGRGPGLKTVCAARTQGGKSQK

SMILES	EC50 [µM]
CC#CC(CC(=O)O)c1ccc(OCc2ccc(CN3CCc4ccccc4C3)c(C3=CCCCC3)c2)cc1 (stereo not shown) [Example 13, 3-(4-(3-cyclohexenyl-4-((3,4-dihydroisoquinoline-2(1H)-yl)methyl)benzyloxy)phenyl)hex-4-ynoic acid]	> 0.3
CC#C[C@@H](CC(=O)O)c1ccc(OCc2ccc(CCN3Cc4ccccc4C3)cc2)cc1 [Example 49, (S)-3-(4-(4-(2-(isoindoline-2-yl)ethyl)benzyloxy)phenyl)hex-4-ynoic acid]	> 0.3
CC#C[C@@H](CC(=O)O)c1ccc(OCc2ccc(CCN3CCc4ccccc4C3)cc2)cc1 [Example 50, (S)-3-(4-(4-(2-(3,4-dihydroisoquinoline-2(1H)-yl)ethyl)benzyloxy)phenyl)hex-4-ynoic acid]	> 0.3
CC#C[C@@H](CC(=O)O)c1ccc(OCc2ccc(CN3CCN(c4ccc(C(F)(F)F)cc4)CC3)cc2)cc1 [Example 22, (S)-3-(4-(4-((4-(4-(trifluoromethyl)phenyl)piperazine-1-yl)methyl)benzyloxy)phenyl)hex-4-ynoic acid]	> 0.3
CC#C[C@H](CC(=O)O)c1ccc(OCc2cccc(C3=CCC4(CC3)OCCO4)c2)cc1 [Example 8, (3R)-3-(4-(3-(1,4-dioxaspiro[4,5]dec-7-en-8-yl)benzyloxy)phenyl)hex-4-ynoic acid]	> 0.3
CC#C[C@@H](CC(=O)O)c1ccc(OCc2ccc(C(C)N3CCc4ccccc4C3)cc2)cc1 (stereo partly drawn) [Example 34, (3S)-3-(4-(4-(1-(3,4-dihydroisoquinoline-2(1H)-yl)ethyl)benzyloxy)phenyl)hex-4-ynoic acid]	> 0.3
CC#CC(CC(=O)O)c1ccc(OCc2ccc(CN3CCN(c4ccccc4)CC3)cc2)cc1 (stereo not shown) [Example 15, 3-(4-(4-((4-phenylpiperazine-1-yl)methyl)benzyloxy)phenyl)hex-4-ynoic acid]	> 0.3
CC#C[C@@H](CC(=O)O)c1ccc(OCc2ccc(CN3CCCc4ccccc43)cc2)cc1 [Example 41, sodium (S)-3-(4-(4-((3,4-dihydroquinoline-1(2H)-yl)methyl)benzyloxy)phenyl)hex-4-ynoate]	> 0.3
CC#CC(CC(=O)O)c1ccc(OCc2ccc(CN3CCN(c4ccc(C(F)(F)F)cc4)CC3)cc2)cc1 (stereo not shown) [Example 19, 3-(4-(4-((4-(4-(trifluoromethyl)phenyl)piperazine-1-yl)methyl)benzyloxy)phenyl)hex-4-ynoic acid]	> 0.3
CC#C[C@@H](CC(=O)O)c1ccc(OCc2ccc(CN3CCC(c4ccccc4)C3)cc2)cc1 (stereo partly drawn) [Example 46, (3S)-3-(4-(4-((3-phenylpyrrolidine-1-yl)methyl)benzyloxy)phenyl)hex-4-ynoic acid]	> 0.3
CC#C[C@@H](CC(=O)O)c1ccc(OCc2ccc(CN3CCN(c4ncc(CCC)cn4)CC3)cc2)cc1 [Example 44, (S)-3-(4-(4-((4-(5-propylpyrimidine-2-yl)piperazine-1-yl)methyl)benzyloxy)phenyl)hex-4-ynoic acid]	> 0.3
CC#CC(CC(=O)O)c1ccc(OCc2ccc(CN3CCN(c4ccc(F)cc4)CC3)cc2)cc1 (stereo not shown) [Example 18, 3-(4-(4-((4-(4-fluorophenyl)piperazine-1-yl)methyl)benzyloxy)phenyl)hex-4-ynoic acid]	> 0.3
CC#CC(CC(=O)O)c1ccc(OCc2ccc(CN3CCc4ccccc4C3)cc2)cc1 (stereo not shown) [Example 12, 3-(4-(4-((3,4-dihydroisoquinoline-2(1H)-yl)methyl)benzyloxy)phenyl)hex-4-ynoic acid]	< 0.2
CC#C[C@@H](CC(=O)O)c1ccc(OCc2ccc(CN3CCN(c4ccc(O)cc4)CC3)cc2)cc1 [Example 35, (S)-3-(4-(4-((4-(4-hydroxyphenyl)piperazine-1-yl)methyl)benzyloxy)phenyl)hex-4-ynoic acid]	> 0.3
CC#C[C@@H](CC(=O)O)c1ccc(OCc2ccc(CN3Cc4ccccc4C3)cc2)cc1 [Example 27, (S)-3-(4-(4-(isoindoline-2-ylmethyl)benzyloxy)phenyl)hex-4-ynoic acid]	< 0.2
CC#C[C@@H](CC(=O)O)c1ccc(OCc2ccc(CN3CC=C(c4ccc(OCCCS(C)(=O)=O)cc4)CC3)cc2)cc1 [Example 33, (S)-3-(4-(4-((4-(4-(3-(methylsulfonyl)propoxy)phenyl)-5,6-dihydropyridine-1(2H)-yl)methyl)benzyloxy)phenyl)hex-4-ynoic acid]	> 0.3
CC#C[C@@H](CC(=O)O)c1ccc(OCc2ccc(CN3CCN(c4ccc(C#N)cn4)CC3)cc2)cc1 [Example 45, (S)-3-(4-(4-((4-(5-cyanopyridine-2-yl)piperazine-1-yl)methyl)benzyloxy)phenyl)hex-4-ynoic acid]	> 0.3
CC#CC(CC(=O)O)c1ccc(OCc2cccc(C3=CCC(O)CC3)c2)cc1 [Example 6, L-lysine 3-(4-(3-(4-hydroxycyclohex-1-enyl)benzyloxy)phenyl)hex-4-ynoate]	0.2 to 0.3
CC#C[C@@H](CC(=O)O)c1ccc(OCc2ccc(CN3CCN(c4ccc(F)cc4)CC3)cc2)cc1 [Example 23, (S)-3-(4-(4-((4-(4-fluorophenyl)piperazine-1-yl)methyl)benzyloxy)phenyl)hex-4-ynoic acid]	0.2 to 0.3
CC#CC(CC(=O)O)c1ccc(OCc2ccc(CN3CCN(c4ccc(OCCCS(C)(=O)=O)cc4)CC3)cc2)cc1 (stereo not shown) [Example 20, 3-(4-(4-((4-(4-(3-(methylsulfonyl)propoxy)phenyl)piperazine-1-yl)methyl)benzyloxy)phenyl)hex-4-ynoic acid]	> 0.3
CC#CC(CC(=O)O)c1ccc(OCc2ccc(CN3CCc4cc(OC)ccc4C3)cc2)cc1 (stereo not shown) [Example 16, 3-(4-(4-((6-methoxy-3,4-dihydroisoquinoline-2(1H)-yl)methyl)benzyloxy)phenyl)hex-4-ynoic acid]	> 0.3
CC#C[C@@H](CC(=O)O)c1ccc(OCc2ccc(CN3CC=C(c4ccc(S(C)(=O)=O)cc4)CC3)cc2)cc1 [Example 32, (S)-3-(4-(4-((4-(4-(methylsulfonyl)phenyl)-5,6-dihydropyridine-1(2H)-yl)methyl)benzyloxy)phenyl)hex-4-ynoic acid]	> 0.3
CC#C[C@@H](CC(=O)O)c1ccc(OCc2ccc(CN3CCN(c4nc5ccccc5s4)CC3)cc2)cc1 [Example 43, (S)-3-(4-(4-((4-(benzo[d]thiazole-2-yl)piperazine-1-yl)methyl)benzyloxy)phenyl)hex-4-ynoic acid]	> 0.3
CC#CC(CC(=O)O)c1ccc(OCc2ccc(CN3CCC(c4ccccc4)CC3)cc2)cc1 (stereo not shown) [Example 17, 3-(4-(4-((4-phenylpiperidine-1-yl)methyl)benzyloxy)phenyl)hex-4-ynoic acid]	> 0.3
CC#C[C@@H](CC(=O)O)c1ccc(OCc2ccc(CN3CCc4cc(OC)ccc4C3)cc2)cc1 [Example 25, (S)-3-(4-(4-((6-methoxy-3,4-dihydroisoquinoline-2(1H)-yl)methyl)benzyloxy)phenyl)hex-4-ynoic acid]	> 0.3
CC#C[C@@H](CC(=O)O)c1ccc(OCc2ccc(CCN3CCc4cc(OC)ccc4C3)cc2)cc1 [Example 48, (S)-3-(4-(4-(2-(6-methoxy-3,4-dihydroisoquinoline-2(1H)-yl)ethyl)benzyloxy)phenyl)hex-4-ynoic acid]	> 0.3

same assay, conditions: HEK-293 cells transfected with human GPR40, intracellular calcium; values in text; read-out: EC50, concentration promoting activation of GPR40 protein by 50%

SMILES	EC50 [µM]
CC#CC(CC(=O)O)c1ccc(OCc2ccc(CN3CCc4ccccc4C3)cc2)cc1 (stereo not shown) [Example 12, 3-(4-(4-((3,4-dihydroisoquinoline-2(1H)-yl)methyl)benzyloxy)phenyl)hex-4-ynoic acid]	< 0.2
CC#C[C@@H](CC(=O)O)c1ccc(OCc2ccc(CN3Cc4ccccc4C3)cc2)cc1 [Example 27, (S)-3-(4-(4-(isoindoline-2-ylmethyl)benzyloxy)phenyl)hex-4-ynoic acid]	< 0.2
